Assay results reported in US8853230B2, “Inhibitors of JAK” (Portola Pharmaceuticals, Inc., priority 2009, dated 2014).

Columns and labels:
Format in all cases: biochemical
[1] = target: T1, JAK3 (Homo sapiens, UniProt P52333); test: Z'-LYTE kinase assay, JAK3 tyrosine phosphorylation activity
T1 construct: 5 μl of catalytic domain recombinant Kinase enzyme+Tyr peptide substrate (Invitrogen, Calif.); purchased Invitrogen
Description: (§1) JAK and TYK2 tyrosine phosphorylation activity is measured using the Z′-LYTE™ Technology developed by Invitrogen Corporation (Carlsbad, Calif.). For JAK1, JAK2 and JAK3 the Z′-LYTE™ Kinase Assay Kit-Tyr6 Peptide (part number PV4122) was used. For TYK2 the Z′-LYTE™ Kinase Assay Kit-Tyr6 Peptide (part number PV3192) was used. The Z′-LYTE™ biochemical assay employs a fluorescence resonance energy transfer (FRET) coupled-enzyme format and is based on the differential sensitivity of phosphorylated and non-phosphorylated peptides to proteolitic cleavage. The assay uses a synthetic peptide substrate that is labelled with a donor fluorophore (coumarin) and an acceptor fluorophore (fluorescein) that make up a FRET pair. In the primary reaction (the Kinase Reaction), the kinase transfers the γ-phosphate of ATP to a single tyrosine residue on the substrate, while the presence of a kinase inhibitor in the primary reaction suppresses phosphorylation. In the secondary reaction (the Development Reaction), a site-specific protease (the Development Reagent) is added. The development buffer quenches the Kinase Reaction, while the protease recognizes and cleaves non-phosphorylated Z′-LYTE™ peptide substrate. Cleavage disrupts FRET between the donor and acceptor fluorophores on the non-phosphoryleted substrate, while uncleaved, phosphorylated substrate maintains FRET.
(§2) To test the ability of candidate molecules to inhibit JAK tyrosine phosphorylation activity, molecules are reconstituted in 100% DMSO and serially diluted 1:10 in polypropylene v-bottom microtiter plates. The candidate molecules are then diluted 1:25 into kinase buffer and 2.5 μl transferred into duplicate wells of a 384 well low volume black microtiter assay plate (Corning, USA). The final DMSO concentration in the assay is 1%. The kinase reaction contains 2.5 μl of a candidate molecule, 5 μl of catalytic domain recombinant Kinase enzyme+Tyr peptide substrate (Invitrogen, Calif.) and 2.5 μl ATP (Invitrogen, Calif.). The kinase reaction is allowed to procede for 1 hour at room temperature. The protease reaction is initiated by the addition of 5 μl Development Reagent (Invitrogen, Calif.). After 1 hour incubation at room temperature the fluorescence is measured using a FlexStation plate reader (Molecular Devices, Sunnyvale, Calif.). The reader settings used are as follows: Fluorescence mode, endpoint, top read, excitation 400 nm, emission 445 nm and 520 nm, Auto Cutoff 435 nm and 515 nm, PMT sensitivity high, 6 reads per well. Inhibition of JAK activity is calculated as the percent phosphorylation of substrate in the presence of inhibitor compared to the percent phosphorylation of substrate in the absence of inhibitor. IC50's were derived using Xlfit 4.3 (IDBS, UK), 4 parameter logistic model 205: Y=(A+((B−A)/(1+((C/x)^D)))).

[2] = target: T2, JAK1 (Homo sapiens, UniProt P23458); test: Z'-LYTE kinase assay, JAK1 tyrosine phosphorylation activity; conditions: read-out: JAK 1 IC50
T2 construct: 5 μl of catalytic domain recombinant Kinase enzyme+Tyr peptide substrate (Invitrogen, Calif.); purchased Invitrogen
T2 sequence (P23458 875-1153 limits assumed): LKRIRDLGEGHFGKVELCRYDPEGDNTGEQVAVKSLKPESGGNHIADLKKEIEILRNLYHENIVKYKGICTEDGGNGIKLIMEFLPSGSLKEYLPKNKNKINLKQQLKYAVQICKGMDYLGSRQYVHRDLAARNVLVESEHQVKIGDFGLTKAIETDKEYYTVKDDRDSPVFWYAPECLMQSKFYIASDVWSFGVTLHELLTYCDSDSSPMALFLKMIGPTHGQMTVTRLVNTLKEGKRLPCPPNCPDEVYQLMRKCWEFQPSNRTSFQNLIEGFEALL
Description: as §1, §2

[3] = target: T3, JAK2 (Homo sapiens, UniProt O60674); test: Z'-LYTE kinase assay, JAK2 tyrosine phosphorylation activity
T3 construct: 5 μl of catalytic domain recombinant Kinase enzyme+Tyr peptide substrate (Invitrogen, Calif.); purchased Invitrogen
T3 sequence (O60674 849-1124 limits assumed): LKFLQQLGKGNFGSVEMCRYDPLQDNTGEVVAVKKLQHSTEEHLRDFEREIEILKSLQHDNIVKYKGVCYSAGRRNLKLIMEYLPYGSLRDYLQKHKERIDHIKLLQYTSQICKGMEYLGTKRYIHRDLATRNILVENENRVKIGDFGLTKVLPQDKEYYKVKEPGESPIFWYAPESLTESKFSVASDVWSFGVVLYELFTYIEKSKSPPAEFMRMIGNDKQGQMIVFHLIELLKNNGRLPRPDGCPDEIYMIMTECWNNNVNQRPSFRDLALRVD
Description: as §1, §2

T1 sequence (P52333 822-1111 limits assumed): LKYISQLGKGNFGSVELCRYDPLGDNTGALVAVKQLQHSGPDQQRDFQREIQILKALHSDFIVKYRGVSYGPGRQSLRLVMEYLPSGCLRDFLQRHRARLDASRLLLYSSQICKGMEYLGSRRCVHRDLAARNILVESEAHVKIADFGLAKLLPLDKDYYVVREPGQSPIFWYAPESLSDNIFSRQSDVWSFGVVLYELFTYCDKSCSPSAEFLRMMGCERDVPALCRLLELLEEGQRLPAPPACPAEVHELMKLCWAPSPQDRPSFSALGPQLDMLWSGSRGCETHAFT

Structure (SMILES) | IC50 [1] | IC50 [2] | IC50 [3]
CC(=O)Nc1cccc(Nc2ncc(C(N)=O)c(NCC3CCCC3)n2)c1 [Example 280, 2-(3-acetamidophenylamino)-4-(cyclopentylmethylamino)pyrimidine-5-carboxamide] | < 1 nM | – | –
NC(=O)c1cnc(Nc2cccc(NC(=O)N3CCCC3)c2)nc1NCC1CCCC1 [Example 281] | 100 to 1000 nM | – | –
NC(=O)c1cnc(Nc2cccc(NC(=O)N3CC[C@@H](O)C3)c2)nc1NCc1ccccc1 [Example 282, (R)-4-(benzylamino)-2-(3-(3-hydroxypyrrolidine-1-carboxamido)phenylamino)pyrimidine-5-carboxamide] | < 1 nM | – | –
NC(=O)c1cnc(Nc2cccc(NC(=O)N3CC[C@@H](F)C3)c2)nc1NCc1ccccc1 [Example 283, (R)-4-(benzylamino)-2-(3-(3-fluoropyrrolidine-1-carboxamido)phenylamino)pyrimidine-5-carboxamide] | < 1 nM | – | –
NC(=O)c1cnc(Nc2cccc(NC(=O)N3CC[C@H](F)C3)c2)nc1NCc1ccccc1 [Example 284, (S)-4-(benzylamino)-2-(3-(3-fluoropyrrolidine-1-carboxamido)phenylamino)pyrimidine-5-carboxamide] | < 1 nM | – | –
NC(=O)c1cnc(Nc2ccc(F)c(NC(=O)N3CCCC3)c2)nc1NCc1ccccc1F [Example 288, 2-(4-fluoro-3-(pyrrolidine-1-carboxamido)phenylamino)-4-(2-fluorobenzylamino)pyrimidine-5-carboxamide] | 1 to 10 nM | – | –
NC(=O)c1cnc(Nc2cccc(NC(=O)N3CC[C@@H](F)C3)c2)nc1NCc1ccccc1F [Example 289, (R)-4-(2-fluorobenzylamino)-2-(3-(3-fluoropyrrolidine-1-carboxamido)phenylamino)pyrimidine-5-carboxamide] | 10 to 100 nM | – | –
NC(=O)c1cnc(Nc2ccc(F)c(NC(=O)N3CCC3)c2)nc1NCc1ccccc1F [Example 290, 2-(3-(azetidine-1-carboxamido)-4-fluorophenylamino)-4-(2-fluorobenzylamino)pyrimidine-5-carboxamide] | 1 to 10 nM | – | –
NC(=O)c1cnc(Nc2cccc(NC(=O)c3ccccn3)c2)nc1NCc1ccccc1F [Example 295, 4-(2-fluorobenzylamino)-2-(3-(picolinamido)-phenylamino)pyrimidine-5-carboxamide] | 10 to 100 nM | – | –
NC(=O)c1cnc(Nc2cccc(NC(=O)c3cccnc3)c2)nc1NCc1ccccc1F [Example 296, 4-(2-fluorobenzylamino)-2-(3-(nicotinamido)-phenylamino)pyrimidine-5-carboxamide] | < 1 nM | – | –
NC(=O)c1cnc(Nc2cccc(NC(=O)Cc3cccnc3)c2)nc1NCc1ccccc1F [Example 297, 4-(2-fluorobenzylamino)-2-(3-(2-(pyridin-3-yl)acetamido)-phenylamino)pyrimidine-5-carboxamide] | 1 to 10 nM | – | –
NC(=O)c1cnc(Nc2cccc(NC(=O)c3cccc(O)n3)c2)nc1NCc1ccccc1F [Example 298, 4-(2-fluorobenzylamino)-2-(3-(6-hydroxypicolinamido)-phenylamino)pyrimidine-5-carboxamide] | 1 to 10 nM | – | –
NC(=O)c1cnc(Nc2cccc(NC(=O)Cc3ccncc3)c2)nc1NCc1ccccc1F [Example 299, 4-(2-fluorobenzylamino)-2-(3-(2-(pyridin-4-yl)acetamido)-phenylamino)pyrimidine-5-carboxamide] | < 1 nM | – | –
NC(=O)c1cnc(Nc2cccc(NC(=O)Cc3ccccn3)c2)nc1NCc1ccccc1F [Example 300, 4-(2-fluorobenzylamino)-2-(3-(2-(pyridin-2-yl)acetamido)-phenylamino)pyrimidine-5-carboxamide] | < 1 nM | – | –
CC(=O)Nc1cccc(Nc2ncc(C(N)=O)c(Nc3ccc(NC(=O)CC#N)cc3)n2)c1 [Example 301, 2-(3-acetamidophenylamino)-4-(4-(2-cyanoacetamido)-phenylamino)pyrimidine-5-carboxamide] | 1 to 10 nM | – | –
CC(=O)Nc1cccc(Nc2ncc(C(N)=O)c(Nc3ccc(NC(=O)C4(C#N)CC4)cc3)n2)c1 [Example 302, 2-(3-acetamidophenylamino)-4-(4-(1-cyanocyclopropane-carboxamido)phenylamino)pyrimidine-5-carboxamide] | 10 to 100 nM | – | –
CC(=O)Nc1cccc(Nc2ncc(C(N)=O)c(Nc3ccc(NC(=O)CC(F)(F)F)cc3)n2)c1 [Example 303, 2-(3-acetamidophenylamino)-4-(4-(3,3,3-trifluoro-propanamido)phenylamino)pyrimidine-5-carboxamide] | 10 to 100 nM | – | –
NC(=O)c1cnc(Nc2ccc(F)c(NC(=O)N3CCCC3)c2)cc1NCc1cccnc1 [Example 304, 6-(4-fluoro-3-(pyrrolidine-1-carboxamido)phenylamino)-4-(pyridin-3-ylmethylamino)nicotinamide] | 10 to 100 nM | > 1000 nM | > 1000 nM
NC(=O)c1cnc(Nc2ccc(F)c(NC(=O)N3CCCC3)c2)cc1NCc1cccc(F)c1 [Example 307] | 10 to 100 nM | 100 to 1000 nM | 100 to 1000 nM
NC(=O)c1cnc(Nc2cccc(NC(=O)N3CCOCC3)c2)cc1NCc1cccc(F)c1 [Example 308, N-(3-(5-carbamoyl-4-(3-fluorobenzylamino)pyridin-2-ylamino)phenyl)morpholine-4-carboxamide] | 1 to 10 nM | 100 to 1000 nM | 10 to 100 nM
NC(=O)c1cnc(Nc2cccc(NC(=O)N3CCCC3)c2)cc1NCc1cccc(F)c1 [Example 309, 4-(3-fluorobenzylamino)-6-(3-(pyrrolidine-1-carboxamido)phenylamino)nicotinamide] | 1 to 10 nM | 100 to 1000 nM | 10 to 100 nM
CC(=O)Nc1cccc(Nc2cc(NCc3cccc(F)c3)c(C(N)=O)cn2)c1 [Example 310, 6-(3-acetamidophenylamino)-4-(3-fluorobenzylamino)nicotinamide] | 1 to 10 nM | 100 to 1000 nM | 100 to 1000 nM
NC(=O)c1cnc(Nc2ccc(F)c(NC(=O)N3CCC3)c2)cc1N[C@H](CO)c1ccccc1 [Example 311, (S)-6-(3-(azetidine-1-carboxamido)-4-fluorophenylamino)-4-(2-hydroxy-1-phenylethylamino)nicotinamide] | 1 to 10 nM | > 1000 nM | 100 to 1000 nM
NC(=O)c1cnc(Nc2ccc(F)c(NC(=O)N3CCCC3)c2)cc1N[C@H](CO)c1ccccc1 [Example 313, (S)-6-(4-fluoro-3-(pyrrolidine-1-carboxamido)phenylamino)-4-(2-hydroxy-1-phenylethylamino)nicotinamide] | 10 to 100 nM | > 1000 nM | > 1000 nM
NC(=O)c1cnc(Nc2cccc(NC(=O)N3CCOCC3)c2)cc1N[C@H](CO)c1ccccc1 [Example 314, (S)—N-(3-(5-carbamoyl-4-(2-hydroxy-1-phenylethylamino)pyridin-2-ylamino)phenyl)morpholine-4-carboxamide] | 1 to 10 nM | 100 to 1000 nM | 100 to 1000 nM
NC(=O)c1cnc(Nc2cccc(NC(=O)N3CCCC3)c2)cc1N[C@H](CO)c1ccccc1 [Example 315, (S)-4-(2-hydroxy-1-phenylethylamino)-6-(3-(pyrrolidine-1-carboxamido)phenylamino)nicotinamide] | 1 to 10 nM | > 1000 nM | 100 to 1000 nM
CC(=O)Nc1cccc(Nc2cc(N[C@H](CO)c3ccccc3)c(C(N)=O)cn2)c1 [Example 316, (S)-6-(3-acetamidophenylamino)-4-(2-hydroxy-1-phenylethylamino)nicotinamide] | 10 to 100 nM | 100 to 1000 nM | 100 to 1000 nM
NC(=O)c1cnc(Nc2ccc(F)c(NC(=O)N3CCC3)c2)cc1NCc1cccnc1 [Example 317, 6-(3-(azetidine-1-carboxamido)-4-fluorophenylamino)-4-(pyridin-3-ylmethylamino)nicotinamide] | 10 to 100 nM | > 1000 nM | > 1000 nM
CN(C)[C@@H]1CCN(C(=O)Nc2cccc(Nc3cc(NCc4cccnc4)c(C(N)=O)cn3)c2)C1 [Example 318, (R)-6-(3-(3-(dimethylamino)pyrrolidine-1-carboxamido)phenylamino)-4-(pyridin-3-ylmethylamino)nicotinamide] | 10 to 100 nM | > 1000 nM | 100 to 1000 nM
